The values below come from US6780842B2, “Ceruloplasmin and an antioxidant composition comprising the same and their uses as neuroprotective agent” (Warner-Lambert Company LLC, priority 1999, dated 2004).

The subject of assay [1] is CP ferroxidase activity. In words: CP ferroxidase activity after incubation with H2O2, without or with pyruvate. The assay is classed as biochemical, bovine. To be noted: FIG. 8; 5 mM pyruvate, CP 4 μM, 5 mM H2O2, 37° C. The method, then: CP (4 μM) was incubated for different times (ranging from 0 to 12 h) in the presence of 5 mM H2O2, at 37° C., in PBS, without or with the addition of pyruvate (5 mM) as a protecting agent. At the end of incubation, catalase was added at a concentration of 0.1 mg/ml (84 U/ml) and incubation resumed at room temperature for 15 min in order to inactivate H2O2. Ferroxidase activity of CP was then measured by absorbence using a modified version of the method of Erel (1998). This method uses a chromogen to complex Fe^2+ ions that were not transformed to Fe^3+ions in the assay solution. The reaction mix contained 0.45M acetate buffer, pH 5.8, 60 μM Fe(NH4)2(SO4).6H2O, and either CP (sample), 25 mM EDTA (control corresponding to 100% iron oxidation) or PBS (control corresponding to 0% iron oxidation).
FIG. 8. Protection of CP ferroxidase activity by pyruvate in vitro. CP was incubated for various times, at 37° C., in the presence of 5 mM H2O2, without (No protection) or with 5 mM sodium pyruvate. The reaction was stopped by a 5 min incubation with an excess of catalase. Ferroxidase activity was then measured and expressed relatively (%) to that of a control CP sample not exposed to H2O2. The experiment was done three times, in duplicate determinations, and results are expressed as means±S.D.

For assay [2] the following is noted: Atanasiu et al., 1998; cited from earlier work.
Assay [3] is described as follows: In vitro antioxidant capacity: inhibition of DPD oxidation by H2O2. The assay is classed as biochemical. As to conditions: 84 U catalase; 30 min exposure to 5 mM H2O2 (not shown). The method, then:
Oxidation of N,N-diethyl-p-phenylenediamine (DPD) by a prooxidant system was used as a general reporter of the amount of ROS generated by that system (Anonymous, 1985; Chahine et al., 1991). Antioxidant capacity of preparations of TRIAD (or of its components) was defined as the ability to inhibit the oxidation of DPD by prooxidants.
To estimate the antioxidant capacity of TRIAD preparations in the prooxidant conditions used with P19 neurons, DPD was added to a final concentration of 32 mM to 200 μl of each prooxidant system described above (see section 2.4) and incubated for the times tested with the cells. At the end of incubation, the amount of oxidized DPD was determined at 560 nm using a spectrophotometer adapted to microscale measurement.
FIG. 5. In vitro antioxidant capacity of CP and TRIAD, in the conditions of H2O2 prooxidant system used with P19 neurons. In this assay, conditions of incubation were as described in the legend to FIG. 4 except that P19 neurons were replaced by N,N-diethyl-p-phenylenediamine (DPD) which absorbs at 560 nm upon oxidation. The experiment was done four times, in triplicate determinations, and results are expressed as means±S.D.

For assay [4], the system named is P19 neurons. In words: Viability of P19 neurons exposed to XA/XAO prooxidant system (Alamar Blue). To be noted: FIG. 3. The assay is classed as cell-based. The method, then:
(§1) Culture and neuronal differentiation of P19 embryonal carcinoma cells were done according to the procedures of Jeannotte et al. (1997) with the following modifications for microscale adaptation of cultures to 96-well plates: cell aggregates obtained at day 4 of the treatment of P19 cells with retinoic acid were trypsinized with 0.025% trypsin-1 mM EDTA in PBS and subjected to mechanical passages to obtain individual cells which were seeded in gelatin-precoated microwells at a density of 0.7-1×10^5 cells per well. The newly seeded cells (neurons) were cultured in supplemented Neurobasal medium (Neurobasal® containing 0.5 mM L-glutamine and 0.5% B27 supplement) until exposure to oxidative conditions at day 7. […]
(§2) P19 neurons were exposed to the following prooxidant systems: i) XA/XAO system (which produces •O2^− superoxide radicals and hydrogen peroxide H2O2, according to equation 1, shown below); ii) hydrogen peroxide H2O2; and iii) H2O2/Fe^+2 system (which generates •OH [hydroxyl radicals] via the Fenton reaction, equation 2). […] After they were incubated under oxidative conditions, neurons were analyzed for their residual viability by a fluorimetric assay using the Alamar Blue probe (see section 2.5). […]
(§3) After they were incubated under oxidative conditions, neurons were analyzed for their residual viability by a fluorimetric assay using the Alamar Blue probe. […]
Background: Resazurin is reduced to fluorescent resorufin, in cell work by metabolically active cells.

Assay [5] has as its system P19 neurons. As to the kind of experiment: Viability of P19 neurons exposed to H2O2 (Alamar Blue). The assay is classed as cell-based. As to conditions: catalase 84 U; 5 mM hydrogen peroxide during 30 min. Here is the method: as §1, §2, §3

With `CC(=O)C(=O)[O-].[Na+]` [pyruvate, sodium pyruvate], in assay [1], the “Protection of CP ferroxidase activity against H2O2” value is on record as “inhibited the loss of ferroxidase activity”.
Consider albumin, for which the “Concentration ensuring good antioxidative activity in vitro” value in assay [2] was 260 µM.
For the compound catalase, the “Inhibition of DPD oxidation by H2O2” value in assay [3] is “completely inhibit DPD oxidation”. Further, the “XAO concentration up to which protection was offered” value in assay [4] (250 μM XA, CP 4 μM, catalase 84 U) is given as “up to 50 mU/mL”. Also, the Protection to neurons result in assay [4] (84 U catalase, incubated for 40 min with XAO in the presence of 250 μM XA) is listed as “about 10%”; in assay [5], 100%.
